Data set [1] deals with HCC-1806 derived tumorspheres. In words: FACS binding of immune sera from VLP immunized mice to tumorspheres. It is filed as cell-based, human. The note with it: sera (1:50) of mice immunized with VLPs 3 times at 2 week intervals; passage 2 HCC-1806 tumorspheres. The method, then: FIG. 1A-1B. xCT VLPs elicit antibodies that bind to tumorspheres. Immune sera (1:50) from xCT or control (MS2) VLP immunized mice were incubated with HCC-1806 derived tumorspheres. A FITC conjugated anti mouse IgG was used to detect sera antibodies bound to the cells. (A) FACS analysis of the percentage of tumorsphere cells that bound to the immune sera. As a positive control for xCT binding, we used a commercially available xCT polyclonal antibody. (B) Immunofluorescence analysis showing antibody binding to a tumorsphere from an xCT ECD 6 immunized mouse. Cell nuclei are stained with DAPI.
To determine if xCT VLP vaccination generated antibodies that could bind to breast cancer stem cells, sera from animals immunized with VLPs 3 times at 2 week intervals were incubated with passage 2 tumorspheres from the human cell line HCC-1806.
(In general: In flow cytometry, cells or beads pass a laser one at a time.)

Data set [2] relates to mouse tubo-derived tumorspheres. In words: Lung metastases in VLP immunized mice injected i.v. with tumorspheres. It is filed as in vivo. As to conditions: 5×10^4 tumorspheres i.v., lungs 20 days later, vs MS2 control VLPs. The method, then: FIG. 2. […] Mice immunized with xCT or MS2 control VLPs were injected (i.v) with 5×10^4 mouse tubo-derived tumorspheres. 20 days later, animals were euthanized and lungs were removed, section and the number of metastatic foci were measured. The number of mice were MS2 (n=2), xCT ECD3 (n=5), xCT ECD5 (n=5) and xCT ECD6 (n=4). Metastatic lesions were counted from two lung sections per animal. Data presented is the average number of lesions per slide. Two-tailed student t test was used to determine significance. ** indicates a p-value <0.01.
Inhibition of xCT function by a […] vaccine inhibits the number of metastatic lesions in the lung by 40% in a well characterized breast cancer stem cell transplantation model.

In data set [3] the test system is TUBO cells. In words: MTT in vitro cytotoxicity on TUBO cells. As to conditions: 72 hours. It is filed as cell-based, mouse. The method, then: (§1) A MTT test was performed on TUBO cells and tumorspheres that had either been treated or not with scalar doses of xCT inhibitor SASP. […] On the contrary, xCT overexpression increases colony generating ability, as confirmed by the higher number of colonies generated in soft agar by NIH/3T3 and HEK-293 cells transfected with xCT when compared with the corresponding cells transfected with empty plasmids.
(§2) Twenty-four hours after TUBO cells and tumorspheres seeding in 96-well plates, scalar doses of doxorubicin or sulfasalazine (SASP; Sigma-Aldrich) were added and incubated at 37° C. for 72 hours. Cytotoxicity was evaluated with MTT using the Cell Proliferation Kit I (Roche Diagnostics).

Data set [4] relates to TUBO-derived tumorspheres. In words: Growth of s.c. tumors from TUBO-derived tumorspheres in vaccinated BALB/c mice. The note with it: treated at 2 mm mean diameter, repeated the week later.
Excerpt: TUBO-derived tumorspheres were s.c. implanted into BALB/c mice that were vaccinated when tumors reached 2 or 4 mm mean diameter to evaluate whether xCT immune-targeting hinders breast cancer growth (FIG. 6A-6D).
Female 6- to 8-week-old wild-type (Charles River Laboratories) and Ig μ-chain gene knocked out (BALB-μIgKO) BALB/c mice were maintained at the Molecular Biotechnology Center, University of Torin, and treated in accordance with the University Ethical Committee and European guidelines under Directive 2010/63. Vaccination, performed either before or after tumor challenge, consisted of two intramuscular electroporations at 2 weeks interval, of pVAX1 or pVAX1-xCT plasmids.
Primary s.c. tumors were induced by injecting 1×10^4 TUBO or 4T1 tumorsphere-derived cells.
For data set [5] the following is noted: in vivo; cited from earlier work.
The subject of data set [6] is tumorspheres. In words: Tumorsphere generation after SASP or xCT siRNAs. It is filed as cell-based, mouse. As to conditions: spheres counted 5 days later (SASP). The procedure:
FIG. 4A-4H. xCT regulates CSC self-renewal and the intracellular redox balance. A and B, MTT assay of the cytotoxic effect exerted by scalar doses of SASP or by anti-xCT siRNAs on TUBO (A) and tumorspheres (B). (C) Sphere generation ability relative to untreated cells of tumorspheres incubated with SASP. (D) Sphere generation ability of tumorspheres incubated with siRNAs to xCT, scrambled siRNAs, or not at all shown as tumorsphere number/10^3 plated cells. (E) and (F) FACS analysis of xCT and CSC marker expression in spheres 24 hours after transfection with siRNAs to xCT or scrambled siRNAs. (E) histograms show xCT expression; open histograms show the background of negative control IgG stained cells from one representative experiment. (F) relative expression (%) of xCT^+, Sca-1^+, and CD44^high/CD24^low cells in tumorsphere-derived cells transfected with siRNAs to xCT (black bars) compared with cells transfected with scrambled siRNAs (dashed line). G and H, GSH (G) and ROS (H) levels in TUBO cells and their derived tumorspheres after either seeding in normal conditions, transfection with siRNAs to xCT, or scrambled siRNAs over three independent experiments. *, P<0.05; **, P<0.01;***, P<0.001, Student t test. […]
Dissociated tumorspheres were cultured with scalar doses of SASP or its diluent DMSO (Sigma-Aldrich), and the total number of tumorspheres/well was counted 5 days later.

The target in data set [7] is T1, xCT (Homo sapiens, UniProt Q9UPY5).
T1 sequence (Q9UPY5 1-501): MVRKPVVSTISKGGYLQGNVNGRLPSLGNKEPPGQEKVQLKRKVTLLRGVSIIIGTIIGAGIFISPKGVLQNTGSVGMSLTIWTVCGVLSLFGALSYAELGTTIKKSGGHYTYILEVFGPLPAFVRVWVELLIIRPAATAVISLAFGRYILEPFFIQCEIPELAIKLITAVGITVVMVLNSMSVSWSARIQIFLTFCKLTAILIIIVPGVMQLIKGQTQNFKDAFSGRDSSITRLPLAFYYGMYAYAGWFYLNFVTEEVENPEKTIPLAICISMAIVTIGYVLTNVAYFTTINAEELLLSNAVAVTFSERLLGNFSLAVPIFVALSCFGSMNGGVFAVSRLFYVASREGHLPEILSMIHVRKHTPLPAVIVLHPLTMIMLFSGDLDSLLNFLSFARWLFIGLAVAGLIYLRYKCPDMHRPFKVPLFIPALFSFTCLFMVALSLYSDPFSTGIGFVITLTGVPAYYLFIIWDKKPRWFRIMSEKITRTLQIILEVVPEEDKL
T1 sequence (P08195 1-529 partner): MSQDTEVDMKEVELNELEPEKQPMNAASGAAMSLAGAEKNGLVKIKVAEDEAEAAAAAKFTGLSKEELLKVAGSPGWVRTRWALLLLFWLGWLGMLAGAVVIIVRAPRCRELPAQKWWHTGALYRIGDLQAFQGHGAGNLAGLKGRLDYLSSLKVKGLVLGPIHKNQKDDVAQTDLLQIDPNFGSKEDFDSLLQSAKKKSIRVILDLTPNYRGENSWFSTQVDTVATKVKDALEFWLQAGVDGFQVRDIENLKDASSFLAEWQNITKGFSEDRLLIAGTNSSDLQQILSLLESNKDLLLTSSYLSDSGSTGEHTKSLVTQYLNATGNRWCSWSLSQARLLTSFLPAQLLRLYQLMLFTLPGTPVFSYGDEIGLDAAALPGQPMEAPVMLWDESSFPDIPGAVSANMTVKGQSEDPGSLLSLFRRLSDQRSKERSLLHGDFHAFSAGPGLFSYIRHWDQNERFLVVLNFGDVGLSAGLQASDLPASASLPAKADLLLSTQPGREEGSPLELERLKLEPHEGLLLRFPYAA
As to conditions: animal models; cited from earlier work.

Data set [8] deals with TUBO-derived tumorspheres. In words: MTT in vitro cytotoxicity on tumorspheres. It is filed as cell-based. The note with it: Mus musculus, 72 hours, read-out: IC50, tumorsphere viability (MTT). The procedure: as §1, §2
For data set [9] the following is noted: physiological conditions; cited from earlier work.

Regarding “xCT ECD3: MS2 VLP displaying extracellular domain 3 of human xCT in the AB loop of the coat protein (MQLIKGQTQNFKDAFSGRDSSITR; displayed on MS2 VLP coat protein AB loop; listed as Homo sapiens)”, in [1], the “antibody response: immune sera antibodies binding to tumorspheres by FACS” value is recorded as “generated antibodies against xCT that were able to bind to human breast cancer cells as well as a commercially available xCT antibody”.
As for “xCT ECD6: MS2 VLP displaying extracellular domain 6 of human xCT in the AB loop of the coat protein (YSDPFS; displayed on MS2 VLP coat protein AB loop; listed as Homo sapiens)”, in [1], the “antibody response: immune sera antibodies binding to tumorspheres by FACS” value was “generated antibodies against xCT that were able to bind to human breast cancer cells as well as a commercially available xCT antibody”. Also, in data set [2], the “reduction of the number of metastases in the lung” value is approximately 60%.
For `COc1cccc2c1C(=O)c1c(O)c3c(c(O)c1C2=O)C[C@@](O)(C(=O)CO)C[C@@H]3O[C@H]1C[C@H](N)[C@H](O)[C@H](C)O1` [doxorubicin], in [3] (scalar doses), the “sensitivity of TUBO cells compared with tumorspheres (MTT)” value was “higher sensitivity”. Besides, in data set [4], the “mice with tumor regression” value is 25%.
A word on the IC50: it is the concentration that inhibits the measured activity by half. On to `O=C(O)c1cc(/N=N/c2ccc(S(=O)(=O)Nc3ccccn3)cc2)ccc1O` [SASP, sulfasalazine], for which the bioavailability result in [5] is on record as “low bioavailability”. For the same compound, the tumorsphere generation result in data set [6] is reported as “impaired tumorsphere generation”. The IC50 in data set [3] (Mus musculus, TUBO cells, read-out: IC50, cell viability (MTT)) was found to be 126 ± 25.7 µM; in data set [8], 51.6 ± 3.5 µM. Further, in [7], the metastatic foci result is “significant decreases in metastatic foci”. In addition, in [9], the stability and solubility result is “labile and insoluble under physiological conditions”.

Values taken from patent US11040223B2, “Compositions and methods related to xCT peptides” (AGILVAX, INC., priority 2015, dated 2021).
